Test results as given in patent US20060223996A1, “IL-12 modulatory compounds” (Synta Pharmaceuticals Corp., priority 2004, published 2006).

Legend:
IL-12 [1] = test: Murine in vitro assay: IL-12 production in IFNγ/SAC-stimulated splenocytes of immunized Balb/c mice (ELISA); type: cell-based; settings: Mus musculus, Splenocyte; Balb/c splenocytes stimulated with IFNγ and SAC
Experimental: Murine In Vitro Assay. Balb/c mice (Taconic, Germantown, N.Y.) were immunized with Mycobacterium tuberculosis H37Ra (Difco, Detroit, Mich.). The splenocytes were harvested 5 days and prepared in RPMI medium supplemented with 10% FCS and antibiotics in a flat bottom 96-well plate with 1×10^6 cells/well. The splenocytes were then stimulated with a combination of IFNγ (60 ng/mL) and SAC (0.025%) (LPS (20 μg/mL can be used instead of SAC)) in the presence of a test compound. Cell-free supernatants were taken 24 h later for the measurement of cytokines. The preparation of compound and the assessment of cell viability were carried out as described above. […] Mouse IL-12 p70, IL-10, IL-1β, and TNFα are measured using ELISA kits from Endogen, according to the manufacturer's instructions.

IL-12 [2] = test: Human in vitro assay: inhibition of IL-12 production in IFNγ/LPS- or IFNγ/SAC-stimulated human PBMC or THP-1 cells (ELISA); type: cell-based; settings: read-out: IC50 Range (representative in vitro IC50 data)
Procedure, shortened: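 Sandwich ELISA for IL-12 (p70, p40) on supernatants collected 18 h after stimulation gave IC50 values; MTS monitored viability. THP-1 cells: IFNγ 100 U/mL priming 22 h, SAC 0.025%. PBMC: IFNγ 30 U/mL for 22 h plus LPS 1 μg/mL, or IFNγ 100 U/mL plus SAC 0.01%. Final DMSO 0.25%.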

adjuvant arthritis (AA) = test: Treatment of adjuvant arthritis in rats; type: in vivo, rat; settings: female Lewis rats, oral once a day for 7 days (day 7-14) after MTB induction, vs vehicle
Experimental: Treatment of adjuvant arthritis in rats: Adjuvant arthritis (AA) was induced in female Lewis rats by the intracutaneous injection (base of the tail) of 0.1 mL of a 10 mg/mL bacterial suspension made from ground, heat-killed Mycobacterium tuberculosis (MTB) H37Ra suspended in incomplete Freund's adjuvant. Rats were given Compound 1 or vehicle orally once a day for 7 days (day 7-14), starting day 7 after mycobacterium induction. The development of polyarthritis was monitored daily by macroscopic inspection and assignment of an arthritis index to each animal, during the critical period (days 10 to 25 post-immunization).
The intensity of polyarthritis was scored according to the following scheme: (a) Grade each paw from 0 to 3 based on erythema, swelling, and deformity of the joints: 0 for no erythema or swelling; 0.5 if swelling is detectable in at least one joint; 1 for mild swelling and erythema; 2 for swelling and erythema of both tarsus and carpus; and 3 for ankylosis and bony deformity. Maximum score for all 4 paws was thus 12. […]
Experiments with the AA model were repeated four times. […] The arthritis score used in this model was a reflection of the inflammatory state of the structures monitored and the results therefore show the ability of the test compound to provide relief for this aspect of the pathology.

| SMILES | IC50 (IL-12 [1]) [µM] | IC50 (IL-12 [2]) [µM] | development of polyarthritis (adjuvant arthritis (AA)) | arthritic score (arthritic index) (adjuvant arthritis (AA); FIG. 1) |
| --- | --- | --- | --- | --- |
| Cc1[nH]c2ccc(NC(=O)c3cc(OCCN)nc(N4CCOCC4)n3)cc2c1C [Compound 273, 6-(2-Amino-ethoxy)-2-morpholin-4-yl-pyrimidine-4-carboxylic acid (2,3-dimethyl-1H-indol-5-yl)-amide] | 1.25 | < 1 | – | – |
| Cc1[nH]c2ccc(NC(=O)c3cc(OCCN4CCOCC4)nc(N4CCOCC4)n3)cc2c1C [Compound 1, 2-Morpholin-4-yl-6-(2-morpholin-4-yl-ethoxy)-pyrimidine-4-carboxylic acid (2,3-dimethyl-1H-indol-5-yl)-amide] | – | < 1 | delayed the development of polyarthritis in a dose-dependent manner | reduced the arthritic score |
